Molecules are shown by their SMILES. Structures can show the parent of a compound that is named as a salt.

What is called IC50 is the point on the concentration scale where inhibition reaches its midpoint.

Beta-2-microglobulin, sequence (P61769 whole entry): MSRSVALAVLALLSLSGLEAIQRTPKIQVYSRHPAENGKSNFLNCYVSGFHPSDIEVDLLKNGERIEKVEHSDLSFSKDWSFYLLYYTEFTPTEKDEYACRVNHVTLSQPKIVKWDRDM

This assay deals with Beta-2-microglobulin (Homo sapiens, UniProt P61769). Description: Fluorescence Assay. The following applies: pH 7.4; 37 °C. From the text:
Inhibition of wild type beta-m fibrillogenesis tetracycline congeners and was follow by thioflavin fluorescence assay.
`C=C1c2c(Cl)ccc(O)c2C(=O)C2C(=O)[C@]3(O)C(=O)C(C(N)=O)C(=O)[C@@H](N(C)C)[C@@H]3[C@@H](O)[C@H]12` (some centres not stated) [Meclocycline] came in with an IC50 of 98 µM.
Take `CN(C)[C@@H]1C(=O)C(C(=O)NCN2CCCC2)C(=O)[C@@]2(O)C(=O)C3C(=O)c4c(O)cccc4[C@@](C)(O)[C@H]3C[C@@H]12` (some centres not stated) [Rolitetracycline]: 136 µM corresponded to half-maximal inhibition (IC50). This IC50 and that of the molecule before are within 1.5-fold of each other.
In the case of `CN(C)[C@H]1C(=O)C(C(N)=O)C(=O)[C@@]2(O)C(=O)C3C(=O)c4c(O)cccc4[C@@](C)(O)C3C(O)C12` (stereo partly drawn) [4-epi-oxytetracycline], half-maximal inhibition (IC50) required 49 µM.
For `CN(C)[C@@H]1C(=O)C(C(N)=O)C(=O)[C@@]2(O)C(=O)C3C(=O)c4c(O)cccc4[C@@](C)(O)[C@H]3[C@H](O)[C@@H]12` (stereo partly drawn) [(2E,4S,4aR,5S,5aR,6S,12aS)-2-[azanyl(oxidanyl)methylidene]-4-(dimethylamino)-6-methyl-5,6,10,11,12a-pentakis(oxidanyl)-4,4a,5,5a-tetrahydrotetracene-1,3,12-trione] the value was 63 µM.
`Cc1c2c(c(O)c3c(O)ccc(Cl)c13)C(=O)[C@]1(O)C(=O)C(C(N)=O)C(=O)[C@@H](N(C)C)[C@@H]1C2` (some centres not stated) [Anhydrochlortetracycline] showed a half-inhibitory concentration (IC50) of 136 µM.
For `C=C1c2cccc(O)c2C(=O)C2C(=O)[C@]3(O)C(=O)C(C(N)=O)C(=O)[C@@H](N(C)C)[C@@H]3[C@@H](O)[C@H]12` (stereo partly drawn) [(4S,4aR,5S,5aS,12aS)-4-(dimethylamino)-5,10,12a-trihydroxy-1,3,11,12-tetraketo-6-methylene-4a,5,5a,11a-tetrahydro-4H-tetracene-2-carboxamide;hydrochloride] the value was 69 µM; for `C[C@H]1c2cccc(O)c2C(=O)C2C(=O)[C@]3(O)C(=O)C(C(N)=O)C(=O)[C@@H](N(C)C)[C@@H]3[C@@H](O)[C@@H]21` (some centres not stated), 47 µM.

The values above are taken from BindingDB's records for doi:10.1074/jbc.M110.178376 (University of Pavia, 2011).
